Data taken from patent publication US12465594B2 (Brown University, priority 2018, dated 2025).

Assays:
Alpha2A = Alpha2A (Homo sapiens, UniProt P08913); test: PDSP binding assay; details: 10 μM, quadruplicate, cloned target
BZP Rat Brain Site = test: PDSP binding assay; details: 10 μM, quadruplicate
5-HT1A = biological target: T1, 5-HT1A (Homo sapiens, UniProt P08908); test: PDSP binding assay; details: 10 μM, quadruplicate, cloned target
T1 construct: NIMH Psychoactive Drug Screening Program (PDSP)

DOR = DOR (Homo sapiens, UniProt P41143); test: PDSP binding assay; details: 10 μM, quadruplicate, cloned target
5-HT7 = biological target: T2, 5-HT7 (Homo sapiens, UniProt P34969); test: PDSP binding assay; details: 10 μM, quadruplicate, cloned target
T2 construct: NIMH Psychoactive Drug Screening Program (PDSP)

Beta1 = Beta1 (Homo sapiens, UniProt P08588); test: PDSP binding assay; details: 10 μM, quadruplicate, cloned target
M2 = M2 (Homo sapiens, UniProt P08172); test: PDSP binding assay; details: 10 μM, quadruplicate, cloned target
H4 = H4 (Homo sapiens, UniProt Q9H3N8); test: PDSP binding assay; details: 10 μM, quadruplicate, cloned target
CRF1 = CRF1 (Homo sapiens, UniProt P34998); test: CRF1 Ca2+ assay; details: presence of EC80 CRF
Alpha1D = Alpha1D (Homo sapiens, UniProt P25100); test: PDSP binding assay; details: 10 μM, quadruplicate, cloned target
H2 = H2 (Homo sapiens, UniProt P25021); test: PDSP binding assay; details: 10 μM, quadruplicate, cloned target
Alpha1B = Alpha1B (Homo sapiens, UniProt P35368); test: PDSP binding assay; details: 10 μM, quadruplicate, cloned target
5-HT1B = biological target: T3, 5-HT1B (Homo sapiens, UniProt P28222); test: PDSP binding assay; details: 10 μM, quadruplicate, cloned target
T3 construct: NIMH Psychoactive Drug Screening Program (PDSP)

M3 = M3 (Homo sapiens, UniProt P20309); test: PDSP binding assay; details: 10 μM, quadruplicate, cloned target
GABAA = test: PDSP binding assay; details: 10 μM, quadruplicate, cloned target
5-HT6 = biological target: T4, 5-HT6 (Homo sapiens, UniProt P50406); test: PDSP binding assay; details: 10 μM, quadruplicate, cloned target
T4 construct: NIMH Psychoactive Drug Screening Program (PDSP)

H3 = H3 (Homo sapiens, UniProt Q9Y5N1); test: PDSP binding assay; details: 10 μM, quadruplicate, cloned target
KOR = KOR (Homo sapiens, UniProt P41145); test: PDSP binding assay; details: 10 μM, quadruplicate, cloned target
5-HT3 = biological target: T5, 5-HT3 (Homo sapiens, UniProt P46098); test: PDSP binding assay; details: 10 μM, quadruplicate, cloned target
T5 construct: NIMH Psychoactive Drug Screening Program (PDSP)

[1] = In vivo pharmacokinetic study, plasma and brain exposure; details: mouse, 10 mg/kg i.p.
[2] = system: NMDAR EPSCs in VTA dopamine neurons; test: Electrophysiology: CRF potentiation of NMDAR EPSCs in VTA slices; assay type: cell-based, mouse; details: 30 μM compound, CRF 1 μM, VTA-DA neurons, acute brain slices
Description: Male and female mice (n=44; 6-10 weeks) were anesthetized with Euthasol (Butler-Schein). Brains were rapidly removed and placed in ice-cold NMDG-based artificial Cerebrospinal Fluid (aCSF) cutting solution containing (in mM): 92 NMDG, 20 HEPES, 25 glucose, 30 NaHCO3, 2.5 KCl, 1.2 NaPO4 saturated with 95% O2/5% CO2 with an osmolarity of 305-308 mOsm (Advanced Cell Diagnostics). The brain was cut in ice-cold NMDG solution to obtain horizontal VTA slices, 230 μm thick, using a Leica vibratome (Leica VT1200) and slices were incubated in warm NMDG solution (34° C.) for <5 minutes before being placed in a modified aCSF holding solution (in mM): 92 NaCl, 20 HEPES, 25 glucose, 30 NaHCO3, 2.5 KCl, 1.2 NaPO4 (305-308 mOsm). Slices were incubated at room temperature for at least 1 hour before recording.
Whole-cell patch clamp of the lateral VTA was performed under the guidance of IR-DIC optics on an Olympus BX5iWI microscope. Cells were patched with 1.8-3 MO resistance glass microelectrodes containing the following internal solution (in mM): 117 cesium methanesulfonate, 20 HEPES, 0.4 EGTA, 2.8 NaCl, 5 TEA-CI, 4 Mg-ATP, 0.4 Na-GTP, and 5 QX-314 (280-285 mOsm). Dopamine cells were identified by the following criteria: 1) large multipolar soma, 30-40 μm in diameter, 2) tonic firing of <4 Hz when cell attached, 3) large […] with negative voltage step (identified immediately following break in). […] Series resistance was monitored online. […]
For electrophysiology measures, excitatory post-synaptic currents (EPSCs) were normalized to 7 minute of averaged baseline responses, prior to drug application. […] Results are reported as M±SEM a in bar graphs comparing drug to vehicle and analyzed by a one-way ANOVA and post-hoc comparisons to vehicle were performed using a Bonferroni multiple comparisons correction measures (**p<0.01). […]
NMDAR excitatory postsynaptic currents (EPSCs) were recorded from VTA dopamine (DA) neurons in acute brain slices from male and female mice. […]

5-HT5A = biological target: T6, 5-HT5A (Homo sapiens, UniProt P47898); test: PDSP binding assay; details: 10 μM, quadruplicate, cloned target
T6 construct: NIMH Psychoactive Drug Screening Program (PDSP)

Beta3 = Beta3 (Homo sapiens, UniProt P13945); test: PDSP binding assay; details: 10 μM, quadruplicate, cloned target
Beta3, sequence (P13945 whole entry): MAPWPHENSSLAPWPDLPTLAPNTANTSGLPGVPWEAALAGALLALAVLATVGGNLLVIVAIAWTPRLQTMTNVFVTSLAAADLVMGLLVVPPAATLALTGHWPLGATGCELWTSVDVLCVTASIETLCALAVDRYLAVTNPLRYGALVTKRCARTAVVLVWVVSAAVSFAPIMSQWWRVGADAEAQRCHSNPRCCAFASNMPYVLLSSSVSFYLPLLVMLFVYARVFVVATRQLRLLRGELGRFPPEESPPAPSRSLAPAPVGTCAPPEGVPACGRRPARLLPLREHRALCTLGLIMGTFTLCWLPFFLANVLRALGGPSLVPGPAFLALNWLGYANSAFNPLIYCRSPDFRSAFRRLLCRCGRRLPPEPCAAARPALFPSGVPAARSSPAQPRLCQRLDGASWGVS

CRF1, sequence (P34998 24-415): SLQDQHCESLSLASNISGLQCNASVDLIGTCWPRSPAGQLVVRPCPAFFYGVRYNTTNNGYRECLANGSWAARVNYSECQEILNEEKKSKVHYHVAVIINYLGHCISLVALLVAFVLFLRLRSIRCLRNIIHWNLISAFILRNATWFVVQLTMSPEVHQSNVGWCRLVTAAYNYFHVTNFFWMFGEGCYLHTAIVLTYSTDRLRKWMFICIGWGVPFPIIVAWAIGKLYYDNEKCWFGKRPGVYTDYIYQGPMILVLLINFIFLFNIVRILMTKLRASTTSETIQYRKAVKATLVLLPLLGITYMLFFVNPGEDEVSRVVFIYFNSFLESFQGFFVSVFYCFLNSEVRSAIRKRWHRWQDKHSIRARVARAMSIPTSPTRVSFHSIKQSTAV
T4 sequence (P50406 whole entry, species assumed): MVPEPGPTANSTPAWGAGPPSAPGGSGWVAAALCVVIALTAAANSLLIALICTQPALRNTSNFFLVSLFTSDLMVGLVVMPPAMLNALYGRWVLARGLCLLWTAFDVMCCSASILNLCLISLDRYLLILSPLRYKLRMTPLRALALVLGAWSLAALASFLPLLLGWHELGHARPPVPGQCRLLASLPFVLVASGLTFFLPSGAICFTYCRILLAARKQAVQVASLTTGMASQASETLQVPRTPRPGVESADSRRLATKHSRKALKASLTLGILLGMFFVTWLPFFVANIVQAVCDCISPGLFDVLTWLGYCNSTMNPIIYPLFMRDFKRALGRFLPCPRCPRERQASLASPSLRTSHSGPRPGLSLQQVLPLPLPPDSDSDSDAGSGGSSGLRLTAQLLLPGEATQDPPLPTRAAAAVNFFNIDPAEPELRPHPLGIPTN
M2, sequence (P08172 whole entry): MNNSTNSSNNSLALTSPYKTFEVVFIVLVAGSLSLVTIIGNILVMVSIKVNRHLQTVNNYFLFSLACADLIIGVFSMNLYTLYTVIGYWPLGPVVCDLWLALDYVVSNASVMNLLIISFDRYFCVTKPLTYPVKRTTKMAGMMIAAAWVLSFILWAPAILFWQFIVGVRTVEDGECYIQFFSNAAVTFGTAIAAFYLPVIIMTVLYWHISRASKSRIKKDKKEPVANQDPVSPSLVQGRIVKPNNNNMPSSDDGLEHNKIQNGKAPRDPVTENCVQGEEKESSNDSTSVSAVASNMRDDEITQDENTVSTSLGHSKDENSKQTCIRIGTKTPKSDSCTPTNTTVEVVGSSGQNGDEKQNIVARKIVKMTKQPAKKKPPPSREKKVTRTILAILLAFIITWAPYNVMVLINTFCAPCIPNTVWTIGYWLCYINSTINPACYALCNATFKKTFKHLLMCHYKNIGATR
Alpha1B, sequence (P35368 whole entry): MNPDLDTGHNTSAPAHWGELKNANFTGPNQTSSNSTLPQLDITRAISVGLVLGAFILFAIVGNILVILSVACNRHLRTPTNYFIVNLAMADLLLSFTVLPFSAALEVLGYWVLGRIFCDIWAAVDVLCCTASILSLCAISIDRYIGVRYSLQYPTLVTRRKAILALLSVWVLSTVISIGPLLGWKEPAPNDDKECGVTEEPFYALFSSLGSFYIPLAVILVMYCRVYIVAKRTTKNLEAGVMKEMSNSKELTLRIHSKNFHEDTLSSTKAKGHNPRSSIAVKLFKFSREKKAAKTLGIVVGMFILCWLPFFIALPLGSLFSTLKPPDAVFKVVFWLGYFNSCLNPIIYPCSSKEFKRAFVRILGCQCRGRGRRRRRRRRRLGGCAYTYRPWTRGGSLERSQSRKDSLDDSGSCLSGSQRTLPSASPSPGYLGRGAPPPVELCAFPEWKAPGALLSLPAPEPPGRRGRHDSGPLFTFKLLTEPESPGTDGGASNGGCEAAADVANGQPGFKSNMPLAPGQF
Alpha1D, sequence (P25100 whole entry): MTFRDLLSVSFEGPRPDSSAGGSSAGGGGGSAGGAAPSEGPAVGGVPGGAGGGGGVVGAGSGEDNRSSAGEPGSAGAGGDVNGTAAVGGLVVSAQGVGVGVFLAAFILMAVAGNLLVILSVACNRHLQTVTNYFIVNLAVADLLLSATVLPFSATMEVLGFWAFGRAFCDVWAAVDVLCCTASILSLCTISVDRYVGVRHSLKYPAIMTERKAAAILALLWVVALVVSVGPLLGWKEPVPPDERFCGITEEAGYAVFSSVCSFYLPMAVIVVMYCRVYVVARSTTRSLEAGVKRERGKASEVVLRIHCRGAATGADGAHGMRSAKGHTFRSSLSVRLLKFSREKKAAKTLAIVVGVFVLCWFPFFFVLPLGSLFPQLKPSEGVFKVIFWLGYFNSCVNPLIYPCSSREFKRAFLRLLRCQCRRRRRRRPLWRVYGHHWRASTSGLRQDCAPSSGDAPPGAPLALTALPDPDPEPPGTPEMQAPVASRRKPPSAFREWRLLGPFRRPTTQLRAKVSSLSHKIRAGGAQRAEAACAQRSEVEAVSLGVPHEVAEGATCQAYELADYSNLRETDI
Alpha2A, sequence (P08913 whole entry): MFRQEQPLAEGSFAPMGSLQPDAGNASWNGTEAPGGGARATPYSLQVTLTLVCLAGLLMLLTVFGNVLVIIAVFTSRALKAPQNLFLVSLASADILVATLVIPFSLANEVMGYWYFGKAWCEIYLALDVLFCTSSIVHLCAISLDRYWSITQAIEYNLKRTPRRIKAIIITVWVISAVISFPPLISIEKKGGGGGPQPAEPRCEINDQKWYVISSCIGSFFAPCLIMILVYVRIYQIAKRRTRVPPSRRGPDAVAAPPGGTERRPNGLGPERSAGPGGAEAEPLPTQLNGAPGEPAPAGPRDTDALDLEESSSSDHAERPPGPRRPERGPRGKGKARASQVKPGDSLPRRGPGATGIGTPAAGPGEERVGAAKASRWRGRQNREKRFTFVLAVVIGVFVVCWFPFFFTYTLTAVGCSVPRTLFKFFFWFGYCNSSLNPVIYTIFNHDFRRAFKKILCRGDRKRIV
T5 sequence (P46098 24-478, species assumed): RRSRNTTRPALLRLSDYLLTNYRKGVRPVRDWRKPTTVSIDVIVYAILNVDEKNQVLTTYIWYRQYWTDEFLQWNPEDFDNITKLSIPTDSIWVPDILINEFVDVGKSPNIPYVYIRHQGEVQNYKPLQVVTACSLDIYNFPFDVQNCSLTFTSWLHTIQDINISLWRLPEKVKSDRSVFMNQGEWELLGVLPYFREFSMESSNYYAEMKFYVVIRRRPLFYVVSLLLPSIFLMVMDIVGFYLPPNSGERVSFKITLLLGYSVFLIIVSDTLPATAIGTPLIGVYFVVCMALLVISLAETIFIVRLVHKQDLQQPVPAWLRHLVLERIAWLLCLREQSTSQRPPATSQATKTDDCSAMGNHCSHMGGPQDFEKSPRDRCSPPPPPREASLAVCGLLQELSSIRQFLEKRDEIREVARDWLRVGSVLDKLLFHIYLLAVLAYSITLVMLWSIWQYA
T6 sequence (P47898 whole entry, species assumed): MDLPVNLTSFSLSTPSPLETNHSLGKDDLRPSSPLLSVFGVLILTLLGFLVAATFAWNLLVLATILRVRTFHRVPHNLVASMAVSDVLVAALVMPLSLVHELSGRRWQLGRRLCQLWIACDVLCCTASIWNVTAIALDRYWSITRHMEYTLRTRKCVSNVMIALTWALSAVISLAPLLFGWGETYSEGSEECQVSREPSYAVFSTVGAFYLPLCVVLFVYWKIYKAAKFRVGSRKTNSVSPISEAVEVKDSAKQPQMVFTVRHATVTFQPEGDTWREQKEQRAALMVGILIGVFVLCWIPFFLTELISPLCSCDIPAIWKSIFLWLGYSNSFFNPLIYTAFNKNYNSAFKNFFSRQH
H2, sequence (P25021 whole entry): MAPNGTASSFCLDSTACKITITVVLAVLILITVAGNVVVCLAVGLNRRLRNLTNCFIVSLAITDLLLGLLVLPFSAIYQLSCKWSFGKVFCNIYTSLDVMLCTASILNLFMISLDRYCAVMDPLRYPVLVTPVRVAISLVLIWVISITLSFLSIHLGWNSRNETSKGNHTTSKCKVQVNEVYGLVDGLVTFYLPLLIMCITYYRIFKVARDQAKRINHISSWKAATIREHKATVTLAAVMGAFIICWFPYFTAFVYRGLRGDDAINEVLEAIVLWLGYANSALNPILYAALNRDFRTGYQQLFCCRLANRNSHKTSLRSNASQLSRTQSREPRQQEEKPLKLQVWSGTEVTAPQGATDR
T2 sequence (P34969 whole entry, species assumed): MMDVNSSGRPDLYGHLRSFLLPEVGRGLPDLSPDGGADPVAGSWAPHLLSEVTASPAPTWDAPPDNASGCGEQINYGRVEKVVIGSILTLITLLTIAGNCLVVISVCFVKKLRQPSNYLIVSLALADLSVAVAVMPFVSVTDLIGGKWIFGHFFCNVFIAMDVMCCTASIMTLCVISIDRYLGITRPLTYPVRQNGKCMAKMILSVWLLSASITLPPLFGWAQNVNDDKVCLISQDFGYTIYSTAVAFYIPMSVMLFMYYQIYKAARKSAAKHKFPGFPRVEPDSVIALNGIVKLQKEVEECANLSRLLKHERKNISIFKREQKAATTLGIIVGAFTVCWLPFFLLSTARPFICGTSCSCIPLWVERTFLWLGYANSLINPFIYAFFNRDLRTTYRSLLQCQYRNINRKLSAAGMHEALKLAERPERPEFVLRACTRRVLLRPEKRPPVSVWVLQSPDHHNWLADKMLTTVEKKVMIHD

SMILES	Activity at Alpha2A (binding assay) (Alpha2A) [%]	Activity at BZP Rat Brain Site (binding assay) (BZP Rat Brain Site) [%]	Activity at 5-HT1A (binding assay) (5-HT1A) [%]	Activity at DOR (binding assay) (DOR) [%]	Activity at 5-HT7 (binding assay) (5-HT7) [%]	Activity at Beta1 (binding assay) (Beta1) [%]	Activity at M2 (binding assay) (M2) [%]	Activity at H4 (binding assay) (H4) [%]	CRF1 activity (CRF1)	Activity at Alpha1D (binding assay) (Alpha1D) [%]	Activity at H2 (binding assay) (H2) [%]	Activity at Alpha1B (binding assay) (Alpha1B) [%]	Activity at 5-HT1B (binding assay) (5-HT1B) [%]	Activity at M3 (binding assay) (M3) [%]	Activity at GABAA (binding assay) (GABAA) [%]	Activity at 5-HT6 (binding assay) (5-HT6) [%]	Activity at H3 (binding assay) (H3) [%]	Activity at KOR (binding assay) (KOR) [%]	Activity at 5-HT3 (binding assay) (5-HT3) [%]	Brain exposure ([1]; 4 hour post-dose) [nM]	also measured
Brc1ccccc1-c1nnc(CSc2nnnn2-c2ccccc2)o1 [MLS-0046818]	4	35	26	−7	−31	7	10	8	inactive	−10	22	19	5	13	15	35	−15	85	−2	56	Brain exposure relative to IC50 ([1]; 4 hour post-dose): 0.10 ×IC50; Brain exposure relative to IC50 ([1]; 6 hour post-dose): 0.14 ×IC50; Brain exposure ([1]; 24 hour post-dose): 40 nM; Brain exposure relative to IC50 ([1]; 24 hour post-dose): 0.07 ×IC50; Plasma Cmax exposure relative to in vitro IC50 [1]: 4.8 ×; Block of CRF potentiation of NMDAR EPSCs [2]: sufficient to block the CRF effect; Activity at 5-HT5A (binding assay) (5-HT5A): −1%; Activity at Beta3 (binding assay) (Beta3): 27%
CC(C)Cn1c(SCC(=O)N2CCc3ccccc3C2)nc2cc(Cl)ccc2c1=O [MLS-0219419]	8	25	−9	−8	6	1	23	−15	inactive	−19	20	−1	18	19	9	2	−9	−10	2	245	Brain exposure relative to IC50 ([1]; 4 hour post-dose): 0.52 ×IC50; Brain exposure ([1]; 24 hour post-dose): 78 nM; Brain exposure relative to IC50 ([1]; 24 hour post-dose): 0.17 ×IC50; Plasma Cmax exposure relative to in vitro IC50 [1]: 1.7 ×; Block of CRF potentiation of NMDAR EPSCs [2]: sufficient to block the CRF effect; Activity at 5-HT5A (binding assay) (5-HT5A): 12%; Activity at Beta3 (binding assay) (Beta3): 29%
